The nature of data set [1]: In vitro incubation of OTA with liver S9 and UDP-glucuronic acid (glucuronide formation). The format is in vitro ADME. The conditions noted are these: OTA 0.1 mM, UDPGA 5 mM, 37 °C. Here is the method: (§1) Liver S9 fractions from rats (Sprague-Dawley, male, 97 donors, 20 mg/mL) and humans (mixed genders, 50 donors, 20 mg/mL) were obtained from XenoTech (Kansas City, USA). S9 fractions from Goettingen® minipigs and rabbits were prepared in-house based on a modified protocol from Hubbard et al. (1985). Rabbit liver (Blue Vienna x German Giant, female) was obtained from ImmonuGlobe (Himmelstadt, Germany), whereas minipig liver (Goettingen® minipig, male, 42.4 kg bw) was obtained from the University Goettingen, Department of Animal Science.
(§2) For analysis of OTA-derived glucuronides, liver S9 fractions (4 mg/mL) of rats, rabbit, minipigs and humans were incubated with OTA (0.1 mM), uridine-diphosphate-glucuronic acid (5 mM) and magnesium chloride (5 mM) in 100 mM phosphate-buffered saline (pH 7.4) in a total volume of 300 µL at 37 °C for two hours. Control incubations were carried out in the absence of uridine-diphosphate-glucuronic acid. […] Ten microliters (10 µL) of each sample was injected into the LC–MS system and analyzed using the method described below. […]
(§3) The API 2000/Q-Trap mass spectrometer was operated with a Turbo Ion Spray source in negative ion mode with a voltage of −4000 V. Spectral data were recorded with N2 as the heater gas at 450 °C and as the collision gas (CAD = −2) in multiple reaction monitoring mode (MRM).

Experiment in data set [2]: as above
Format: in vitro ADME, human. Here is the method: as §1, §2, §3

Experiment in data set [3]: as above
Format: in vitro ADME, rat. Here is the method: as §1, §2, §3

`CC1Cc2c(Cl)cc(C(=O)NC(Cc3ccccc3)C(=O)OC3OC(C(=O)O)C(O)C(O)C3O)c(O)c2C(=O)O1` (stereo not drawn) [OTA-Glucuronide]: the “Formation of OTA glucuronide (m/z transitions 578/402 and 578/358)” value in data set [1] (minipig liver S9 4 mg/mL) is on record as “detected”; in data set [1] (rabbit liver S9 4 mg/mL), “detected”; in data set [2] (human liver S9 4 mg/mL, OTA 0.1 mM, UDPGA 5 mM, 37 °C), “detected”; in data set [3] (rat liver S9 4 mg/mL, OTA 0.1 mM, UDPGA 5 mM, 37 °C), “detected”. Moreover, the “OTA-glucuronide formed as compared to rabbit and minipig samples (signal intensities)” value in data set [2] (human liver S9 vs rabbit and minipig liver S9) is reported as 5–10 times; in data set [3] (rat liver S9 vs rabbit and minipig liver S9) it was 5–10 times.

The values above are taken from article PMC8402547, “In Vitro and In Vivo Analysis of Ochratoxin A-Derived Glucuronides and Mercapturic Acids as Biomarkers of Exposure” (Toxins, 2021).
